Data taken from PMC5214534, “Disaggregation of Amylin Aggregate by Novel Conformationally Restricted Aminobenzoic Acid containing α/β and α/γ Hybrid Peptidomimetics” (Scientific Reports, 2017).
Where a SMILES comes first, the peptide text is derived from it. Where no end group is shown, it is not given here. [ ]: non-standard residue; d: D form. 3Abz = Nc1cccc(C(=O)O)c1; 4Abz = Nc1ccc(C(=O)O)cc1; 2Abz = Nc1ccccc1C(=O)O; Aib = CC(C)(N)C(=O)O

How the values were obtained:
hIAPP1-37 = biological target: T1, hIAPP1-37 (Homo sapiens, UniProt P10997); assay: Time dependent Thioflavin T assay, inhibition of amyloid formation of hIAPP; format: biochemical; settings: 10-fold molar excess of peptidomimetic co-incubated with hIAPP 40 μM, PBS pH 7.4, 37 °C, up to 7 days; average of 3 replica
T1 construct: 3.1 mg of hIAPP(1-37) was dissolved in 50 μL of HFIP
T1 sequence (P10997 34-70): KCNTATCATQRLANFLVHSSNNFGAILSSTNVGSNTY
Procedure: To examine the inhibitory efficacy of the single breaker element (I26X) containing BSBHps (3, 4 and 5), we performed various biophysical studies in absence and presence of BSBHps and compared the effect with that of the control 2. The BSBHps and the control were co-incubated with hIAPP in PBS pH 7.4 at 37 °C up to 7 days and the kinetics of the amyloid formation was monitored using various biophysical tools. To investigate dose dependence, 2-, 5- and 10-fold molar excess of peptidomimetics were incubated with hIAPP.
(§1) 3.1 mg of hIAPP(1-37) was dissolved in 50 μL of HFIP to obtain disaggregated hIAPP and HFIP was evaporated using nitrogen gas[43]. This process was repeated twice. Then, 5 mL of Milli Q water was added to the disaggregated material and divided the whole solution into 25 equal portions with 200 μL each. All 25 portions are lyophilized followed by addition of 800 μL of PBS (50 mM, pH 7.4) to each portion to obtain a final hIAPP concentration of 40 μM.
(§2) 50 μM Thioflavin T (ThT) in PBS (50 mM, pH 7.4) was prepared. All the synthesized peptides and hIAPP (alone and in some cases mixed with breaker peptides) were dissolved in PBS (50 mM, pH 7.4) to obtain a desired stock solution (40 μM in the case of hIAPP) and incubated at 37 °C over a water bath. To perform the fluorescence study, 40 μL of sample was taken out from the stock solution and was mixed with 200 μL of ThT solution (50 μM); final volume was made up to 400 μL with PBS. For ThT fluorescence assay, emission was measured at 490 nm and excitation at 435 nm, using a slit of 3 nm on a Fluoromax-4, Horiba instrument. The text files were taken from the instrument and graphs were plotted using OriginPro 8 software. For each data point 3 different sets of replica were scanned separately and average was taken with observed standard deviation.

[1] = biological target: T2, preformed fibrils of hIAPP (Homo sapiens, UniProt P10997); assay: Time dependent Thioflavin T assay, disruption of preformed fibrils of hIAPP; format: biochemical; settings: 10-fold molar excess added at 48 h to hIAPP 40 μM preincubated in PBS pH 7.4, 37 °C; total 7 (2 + 5) days; average of 3 replica
T2 construct: 3.1 mg of hIAPP(1-37) was dissolved in 50 μL of HFIP
T2 sequence (P10997 34-70): T1 sequence (P10997 34-70)
Procedure: We already observed that the BSBHps (3, 4, 7, and 8) were efficient inhibitors. Further, we investigated the ability of those molecules to disrupt preformed fibrils of hIAPP in vitro. From the ThT assay (black, Fig. 2a), we observed that hIAPP fibrillzation was maximum at ~45–50 h. Therefore, we designed an experiment where the BSBHps were added into the preformed fibrillar assembly at 48 h (2 days). The hIAPP was incubated alone in PBS pH 7.4 at 37 °C for 48 h (2 days) and then varied molar excess (2-, 5-, and 10-fold) of designed peptidomimetics were added to it and fibril disruption was monitored by various biophysical tools.
as §1, §2

[2] = Stability in presence of human serum (proteolytic enzymes); format: in vitro ADME; settings: RPMI 1640 with 10% human serum (v/v), 37 °C, 15 min pre-incubation, 10 μL of 5 mg/mL DMSO stock in 1 mL, RP-HPLC and mass spectrometry
Description: Further, to test the stability of these peptidommetics in biological system we performed in vitro stability study in presence of human serum[37][38] which contained sufficient concentration of proteolytic enzymes. We selected BSBHPs 3 and 7, as from the results of all the experiments described above it was clear that BSBHps 3 (one breaker element containing) and 7 (two breaker elements containing) were the best among all the synthesized peptidomimetics. We compared the stability of 3 and 7 with their native peptide analogue (1) using time dependent HPLC & Mass spectrometry studies.
1 mL of the RPMI (Roswell Park Memorial Institute) 1640 media supplemented with 10% human serum (v/v) obtained from Thermo Fisher Scientific was taken in three different 2 mL eppendorf tube and incubated them at 37 °C for 15 min[38]. Then, 10 μL of the peptidomimetics (1, 3 & 7) in DMSO (5 mg/mL) were separately added to the RPMI media and incubated them at 37 °C. At different time interval 100 μL of the aliquot was taken out from the three different eppendorf tubes and added to 200 μL ethanol solution (96% aqueous ethanol) for precipitation of the serum protein. The precipitate was cooled (4 °C) for 10 min and then centrifuged at 18,000 rpm for 2 min and the pellet was discarded. The supernatant was collected and analyzed by RP-HPLC & Mass spectrometry. A linear gradient was used in the HPLC, from 5–100% CH3CN for 18 min followed by 100% CH3CN till 20 min with a flow rate of 4 mL/min using a semi-preparative C18-μ Bondapak column. Binary solvent system were used, solvent A (0.1% TFA in H2O) and solvent B (0.1% TFA in CH3CN).

[3] = Carboxyfluorescein dye leakage assay; settings: sample 2: hIAPP incubated for 12 h; LUVs DPPC:cholesterol:GM1 68:30:2, 50 mM HEPES pH 7.4; peptide:lipid 1:20; 0 to 100 min
Procedure: The hIAPP soluble oligomers are known as more toxic than the matured amyloid, since they can damage the cell by forming pores on the cell membrane. […] To perform the vesicle leakage study, we have prepared 9 sets of different samples including untreated LUVs (without any peptide) as control for the experiment. All the peptidomimetics were added to hIAPP solution after 48 h of incubation and kept for total of 7 days (168 h = 48 h + 120 h) of incubation. After that different peptide solutions were added separately to the LUVs and leakage studies were performed. The different type of samples that were prepared is described below;
The peptide and the lipid were present in 1:20 molar ratios during leakage analysis. At the end of the experiment 10 μL of Triton X-100 was added to obtain complete dye release from the vesicle and the final fluorescence was measured. In addition to those, untreated LUVs (natural dye leakage) were studied and used as control. % dye leakage was calculated as[35],
The LUVs were prepared using three different lipids, DPPC, Cholesterol and GM1 with 68:30:2 molar ratios in 50 mM HEPES buffer of pH 7.4. Prior to the LUVs preparation, all the lipids were taken in clean glass vessel and solubilize to make 2 mM stock solution in chloroform and methanol (2:1) and the solvents were evaporated under vacuum. […]

Compound	Inhibition of hIAPP amyloid formation (suppression of ThT fluorescence intensity) (hIAPP1-37)	Disruption of preformed hIAPP amyloid (ThT assay) [1]	further results
CC(C)C[C@H](NC(=O)C(C)(C)NC(=O)[C@H](C)NC(=O)CNC(=O)[C@H](Cc1ccccc1)NC(=O)[C@@H](N)CC(N)=O)C(N)=O [Peptide 2] (H-NFGA[Aib]L-NH2)	~ 40%	~ 23%	–
CC(C)C[C@H](NC(=O)c1ccccc1NC(=O)[C@H](C)NC(=O)CNC(=O)[C@H](Cc1ccccc1)NC(=O)[C@@H](N)CC(N)=O)C(N)=O [Peptide 3] (H-NFGA[2Abz]L-NH2)	~ 55%	~ 40%	Degradation in presence of human serum at 25 h [2]: some degradation
CC(C)C[C@H](NC(=O)c1ccc(NC(=O)[C@H](C)NC(=O)CNC(=O)[C@H](Cc2ccccc2)NC(=O)[C@@H](N)CC(N)=O)cc1)C(N)=O [Peptide 5] (H-NFGA[4Abz]L-NH2)	–	–	Enhancement of ThT fluorescence intensity of hIAPP (hIAPP1-37): ~ 5%
CC(C)C[C@H](NC(=O)c1ccccc1NC(=O)[C@H](C)NC(=O)c1ccccc1NC(=O)[C@H](Cc1ccccc1)NC(=O)[C@@H](N)CC(N)=O)C(N)=O [Peptide 7] (H-NF[2Abz]A[2Abz]L-NH2)	~ 70%	~ 57%	Degradation in presence of human serum at 25 h [2]: complete retention of the peak
CC(C)C[C@H](NC(=O)c1ccc(NC(=O)[C@H](C)NC(=O)c2ccc(NC(=O)[C@H](Cc3ccccc3)NC(=O)[C@@H](N)CC(N)=O)cc2)cc1)C(N)=O [Peptide 9] (H-NF[4Abz]A[4Abz]L-NH2)	–	–	Enhancement of ThT fluorescence intensity of hIAPP (hIAPP1-37): ~ 12%
CC[C@H](C)[C@H](NC(=O)[C@H](C)NC(=O)CNC(=O)[C@H](Cc1ccccc1)NC(=O)[C@H](CC(N)=O)NC(=O)[C@H](CC(N)=O)NC(=O)[C@H](CO)NC(=O)[C@H](CO)NC(=O)[C@H](Cc1c[nH]cn1)NC(=O)[C@@H](NC(=O)[C@H](CC(C)C)NC(=O)[C@H](Cc1ccccc1)NC(=O)[C@H](CC(N)=O)NC(=O)[C@H](C)NC(=O)[C@H](CC(C)C)NC(=O)[C@H](CCCNC(=N)N)NC(=O)[C@H](CCC(N)=O)NC(=O)[C@@H](NC(=O)[C@H](C)NC(=O)[C@@H]1CSSC[C@H](NC(=O)[C@@H](N)CCCCN)C(=O)N[C@@H](CC(N)=O)C(=O)N[C@@H]([C@@H](C)O)C(=O)N[C@@H](C)C(=O)N[C@@H]([C@@H](C)O)C(=O)N1)[C@@H](C)O)C(C)C)C(=O)N[C@@H](CC(C)C)C(=O)N[C@@H](CO)C(=O)N[C@@H](CO)C(=O)N[C@H](C(=O)N[C@@H](CC(N)=O)C(=O)N[C@H](C(=O)NCC(=O)N[C@@H](CO)C(=O)N[C@@H](CC(N)=O)C(=O)N[C@H](C(=O)N[C@@H](Cc1ccc(O)cc1)C(N)=O)[C@@H](C)O)C(C)C)[C@@H](C)O [hIAPP]	–	–	Dye leakage of LUVs treated with hIAPP [3]: rapid increment of dye leakage
NFGAIL-NH2 [Peptide 1, reference compound]	–	–	Degradation in presence of human serum after 1 h ([2]; after 1 h): complete degradation

Continued, in another order:

Inhibition of hIAPP amyloid formation (suppression of ThT fluorescence intensity) (hIAPP1-37)	Disruption of preformed hIAPP amyloid (ThT assay) [1]	Compound	further results
~ 50%	~ 33%	CC(C)C[C@H](NC(=O)c1cccc(NC(=O)[C@H](C)NC(=O)CNC(=O)[C@H](Cc2ccccc2)NC(=O)[C@@H](N)CC(N)=O)c1)C(N)=O [Peptide 4] (H-NFGA[3Abz]L-NH2)	–
~ 52%	~ 40%	CC(C)C[C@H](NC(=O)C(C)(C)NC(=O)[C@H](C)NC(=O)C(C)(C)NC(=O)[C@H](Cc1ccccc1)NC(=O)[C@@H](N)CC(N)=O)C(N)=O [Peptide 6] (H-NF[Aib]A[Aib]L-NH2)	–
~ 65%	~ 44%	CC(C)C[C@H](NC(=O)c1cccc(NC(=O)[C@H](C)NC(=O)c2cccc(NC(=O)[C@H](Cc3ccccc3)NC(=O)[C@@H](N)CC(N)=O)c2)c1)C(N)=O [Peptide 8] (H-NF[3Abz]A[3Abz]L-NH2)	–
